Data on 14 compounds can be found in US10941114B2, “Small molecule lipid II inhibitors” (University Of Maryland, Baltimore, priority 2015, dated 2021).

Each structure is given as a SMILES string. Structures can show the parent of a compound that is named as a salt.

The first assay concerns Staphylococcus aureus. In words: Antibacterial activity assay (MIC, broth dilution). Type of assay: cell-based. Further details: S. aureus Killing / Bacterial Killing S. aureus: unit not given here. Particulars: Staphylococcus aureus USA 300 strain; broth microdilution.
As to `CN(C)c1ccc(/C=C/c2cc(-c3ccccc3)cc(-c3ccc(F)cc3)[n+]2C)cc1.[I-]` [Compound 3jc07-1, (E)-2-(4-(dimethylamino)styryl)-6-(4-fluorophenyl)-1-methyl-4-phenylpyridin-1-ium iodide salt], the MIC SA USA300 amounted to 4 µg/mL. The same measure, in the same setting: then `CN(CCC#N)c1ccc(/C=C/c2cc(-c3ccccc3)cc(-c3ccc(F)cc3)[n+]2C)cc1.[I-]` [Compound 3jc07-2, (E)-2-(4-((2-cyanoethyl)(methyl)amino)styryl)-6-(4-fluorophenyl)-1-methyl-4-phenylpyridin-1-ium iodide salt], with 32 µg/mL.

The compound `CN(C)c1ccc(/C=C/c2cc(-c3ccccc3)cc(-c3ccc(Br)cc3)[n+]2C)cc1.[I-]` [Compound 3jc07-3, (E)-2-(4-bromophenyl)-6-(4-(dimethylamino)styryl)-1-methyl-4-phenylpyridin-1-ium iodide salt] displayed an MIC SA USA300 of 2 µg/mL. Still for that read-out and setting: then `CN(CCC#N)c1ccc(/C=C/c2cc(-c3ccccc3)cc(-c3ccc(Br)cc3)[n+]2C)cc1.[I-]` [Compound 3jc07-4, (E)-2-(4-bromophenyl)-6-(4-((2-cyanoethyl)(methyl)amino)styryl)-1-methyl-4-phenylpyridin-1-ium iodide salt], with 32 µg/mL; and `COc1ccc(-c2cc(/C=C/c3ccc(N(C)C)cc3)[n+](C)c(-c3ccc(F)cc3)c2)cc1.[I-]` [Compound 3jc07-5, (E)-2-(4-(dimethylamino)styryl)-6-(4-fluorophenyl)-4-(4-methoxyphenyl)-1-methylpyridin-1-ium iodide salt], with 1 µg/mL. Still for that read-out and setting: then `COc1ccc(-c2cc(/C=C/c3ccc(N(C)CCC#N)cc3)[n+](C)c(-c3ccc(F)cc3)c2)cc1.[I-]` [Compound 3jc07-6, (E)-2-(4-((2-cyanoethyl)(methyl)amino)styryl)-6-(4-fluorophenyl)-4-(4-methoxyphenyl)-1-methylpyridin-1-ium iodide salt], with 16 µg/mL; and `COc1ccc(-c2cc(/C=C/c3ccc(N(C)C)cc3)[n+](C)c(-c3ccc(Br)cc3)c2)cc1.[I-]` [Compound 3jc07-7, (E)-2-(4-bromophenyl)-6-(4-(dimethylamino)styryl)-4-(4-methoxyphenyl)-1-methylpyridin-1-ium iodide salt], with 1 µg/mL. Same read-out and setting: under `COc1ccc(-c2cc(/C=C/c3ccc(N(C)CCC#N)cc3)[n+](C)c(-c3ccc(Br)cc3)c2)cc1.[I-]` [Compound 3jc07-8] stands 16 µg/mL; under `CN(C)c1ccc(/C=C/c2cc(-c3ccc(I)cc3)cc(-c3ccc(F)cc3)[n+]2C)cc1.[I-]` [Compound 3jc07-9, (E)-2-(4-(dimethylamino)styryl)-6-(4-fluorophenyl)-4-(4-iodophenyl)-1-methylpyridin-1-ium iodide salt], 4 µg/mL.

The same assay, now with this note: anti-bacterial activity (MIC); strain not stated.
`CCc1ccc(-c2cc(/C=C/c3ccc(N(C)C)cc3)[o+]c(-c3ccc(CC)cc3)c2)cc1` [(E)-2-(4-(dimethylamino)styryl)-4,6-bis(4-ethylphenyl) pyryliurn boron tetrafluoride salt]: the “S. aureus Killing” value is on record as 1. Same read-out and setting: then `Cc1ccc(-c2cc(/C=C/c3ccc(N(C)C)cc3)[o+]c(-c3ccc(C)cc3)c2)cc1` [(E)-2-(4-(dimethylamino)styryl)-4,6-di-p-tolylpyrylium boron tetrafluoride salt], with 0.5; and `CN(C)c1ccc(/C=C/c2cc(-c3ccccc3)cc(-c3ccccc3)[o+]2)cc1` [(E)-2-(4-(dimethylamino)styryl)-4,6-diphenylpyrylium boron tetrafluoride salt], with 2.

As to `CCc1ccc(-c2cc(/C=C/c3cn(C)c4ccccc34)[o+]c(-c3ccc(CC)cc3)c2)cc1` [(E)-2.4-bis(4-ethylphenyl)-6-(2-(1-methyl-1H-indol-3-yl)vinyl)pyrylium boron tetrafiuoride salt], the “S. aureus Killing” value was found to be 1. Same read-out and setting: then `Cc1cc(/C=C/c2ccc(N(C)C)cc2)cc(C)[o+]1` [(E)-4-(4-(dimethylamino)styryl)-2,6-dimethvlpyrylium boron tetrafluoride salt], with 16.
